Experimental data from patent US10624883B2, “Pulmonary hypertension preventative or therapeutic agent containing component exhibiting selenoprotein P activity-inhibiting effect” (priority 2016, dated 2020).
“Also recorded” adds a separate entry of the source.

Tests used:
[1] = system: hypoxia-induced pulmonary hypertension mouse model; assay: Hypoxia-induced pulmonary hypertension mouse model (RVSP, right ventricular hypertrophy); type: in vivo; details: 10% O2 hypoxia, day 28
Description: Eight-week-old male C57BL6/J mice (n=8 per group) were administered sanguinarine (5 mg/kg/day, daily for 28 days, oral administration). A product available from SSX (Cat. No. 1845, Sanguinarine Chloride 10 mg) was used as sanguinarine. A preparation method for a test solution for a treatment group was as follows: sanguinarine was first dissolved at 100 μg/μl in 100% DMSO and the solution was further dissolved in phosphate buffered saline (PBS) so that the final concentration of sanguinarine was 1 μg/μl. A test solution for a control group was prepared by dissolving DMSO at the same concentration in PBS (1% DMSO).
From the test starting day, the mice were bred under a 10% O2 hypoxic environment to generate a hypoxia-induced pulmonary hypertension mouse model. From the same day, the test solutions for the control group and the treatment group were directly administered into the stomachs of the mice once daily through the use of a probe for mice. Regarding doses, the mice were measured for their body weights daily during a test period, and doses were calculated separately for the mice so as to achieve 5 mg/kg/day.
An administration period (=hypoxic breeding period) was 28 days.
After daily administration for 28 days, pulmonary hemodynamics and right ventricular hypertrophy were assessed at the end point (on day 28 after the start of hypoxic stimulation). The assessment of pulmonary hemodynamics was performed by directly measuring right ventricular systolic pressure (RVSP) with a pressure measurement catheter (Transonic Scisense) inserted into the right jugular vein. In addition, the assessment of right ventricular hypertrophy was performed by measuring right ventricular free wall (RV) weight in a dissected heart tissue to calculate its ratio to left ventricle plus septum (LV+Septum) weight (RV/(LV+Septum)). RV/(LV+Septum) serves as an indicator of right ventricular hypertrophy. A larger numerical value for RV/(LV+Septum) indicates a higher degree of right ventricular hypertrophy. In addition, in order to assess pulmonary vascular remodeling, staining for α-smooth muscle actin (α-SMA) in a lung tissue section was performed on day 28. Pulmonary vascular remodeling was assessed by performing immunostaining for α-smooth muscle actin (α-SMA) in a lung tissue section and quantitatively assessing the extent of muscularization (classified into three stages, i.e., non-muscularization, partial muscularization, and full muscularization) of α-SMA-positive distal pulmonary arteries. Specifically, in each section, about 100 pulmonary arteries having diameters of from 20 μm to 70 μm were each assessed for a double elastic lamina. In this assessment, a pulmonary artery in which a double elastic lamina including an internal elastic lamina and an external elastic lamina was visible for less than 50% of the entire periphery of the pulmonary artery was considered non-muscularized, a pulmonary artery in which the double elastic lamina was visible for 50% or more and less than 100% of the entire periphery of the pulmonary artery was considered partially muscularized, and a pulmonary artery in which the double elastic lamina was visible throughout the entire periphery of the pulmonary artery was considered fully muscularized.
Eight-week-old male C57BL6/J mice (n=8 per group) were administered cinobufotalin (5 mg/kg/day, daily for 28 days, intraperitoneal administration). A product available from Sigma (Cat. No. C1147-10MG, Cinobufotalin 10 mg) was used as cinobufotalin. A preparation method for a test solution for a treatment group was as follows: cinobufotalin was first dissolved at 30 μg/μl in 100% DMSO and the solution was further dissolved in PBS so that the final concentration of cinobufotalin was 0.3 μg/μl. A test solution for a control group was prepared by dissolving DMSO at the same concentration in PBS (1% DMSO). […]

[2] = Body weight and food consumption in Sugen/hypoxia rats; type: in vivo, rat; details: 5 mg/kg oral for 28 days
Description: (§1) Rats (Sprague-Dawley, male, 7- to 10-week-old) were injected subcutaneously with a VEGF-receptor inhibitor SU5416 (Sigma-Aldrich) (20 mg per kg body weight) under isoflurane anesthesia and were then exposed to hypoxia (10% O2) for 3 weeks (hypoxia+SU5416). On day 21, the rats were randomized to be orally administered sanguinarine (5 mg per kg body weight) or vehicle under normoxia (21% O2) for 4 weeks. The vehicle administration group is expressed as vehicle controls. In addition, rats injected with saline on day 1 and exposed to normoxia for 7 weeks were used as (normoxic) controls. […] On day 49, the rats were anesthetized with isoflurane (1.0%) to measure RVSP, RVH, and pulmonary vascular remodeling. Thus, the development of PH was assessed.
FIG. 10(B) is a graph for showing the time-course of body weight from the starting point of administration of sanguinarine or vehicle for 4 weeks in Sugen/hypoxia rats (n=12). Data represent the mean±SEM.

[3] = system: SeP; assay: SeP protein levels in lungs of Sugen/hypoxia rats; type: in vivo, rat; details: 5 mg/kg oral for 28 days, hypoxia+SU5416 rats
Description: as §1
FIG. 10(D) includes an image and graph for showing quantification of SeP protein levels in normoxic control rats or hypoxia+SU5416 rats with or without sanguinarine treatment. Data represent the mean±SEM. *p<0.05. Comparisons of parameters were performed with one-way or two-way ANOVA and Tukey's HSD test for multiple comparisons.

[4] = system: selenoprotein P protein; assay: Western blotting of selenoprotein P protein in lungs of hypoxia-induced pulmonary hypertension mice; type: in vivo, mouse; details: C57BL/6 mice, 5 mg/kg/day oral, daily for 28 days, 10% hypoxia
Description: In addition, regarding sanguinarine, C57BL/6 mice (n=8 per group) were administered sanguinarine (5 mg/kg/day, daily for 28 days, oral administration). At the same time, the mice were bred under a 10% hypoxic environment. Thus, a hypoxia-induced pulmonary hypertension mouse model was generated and investigated.

[5] = system: Sugen/hypoxia rat model; assay: Sugen/hypoxia-induced pulmonary hypertension rat model (RVSP, RVH); type: in vivo; details: 5 mg/kg oral for 28 days, started day 21 after hypoxia+SU5416
Description: In this test, littermates or vehicle treatment groups were used as controls. A Sugen/hypoxia-induced hypertension rat model was used to assess pulmonary hypertension (PH) (Non-patent Literature 4). In order to assess the development of pulmonary hypertension, right ventricular systolic pressure (RVSP) and right ventricular hypertrophy (RVH) were measured (Non-patent Literatures 4 to 6).
For right heart catheterization, a 1.4-F (for rats) pressure measurement catheter (Transonic Scisense) was inserted into the right jugular vein and advanced into the right ventricle to measure RVSP (Non-patent Literature 7).
In the Sugen/hypoxia model, rats (Sprague-Dawley, male, 7- to 10-week-old) were injected subcutaneously with a VEGF-receptor inhibitor SU5416 (Sigma-Aldrich, St Louis, Mo.) (20 mg per kg body weight) under isoflurane anesthesia and were then exposed to hypoxia (10% O2) for 3 weeks. […] All data were analyzed using the PowerLab data acquisition system (AD Instruments, Bella Vista, Australia) and were averaged over 50 sequential beats (Non-patent Literatures 4 to 6).
Formaldehyde-fixed dry hearts were dissected and the right ventricular free wall (RV) was removed from the left ventricle (LV) and septum. The ratio of right ventricular free wall (RV) weight to left ventricle plus septum (LV+Septum) weight [RV/(LV+S)] was measured to assess the extent of RVH (Non-patent Literature 4). […]

[6] = 1 mg/kg/day intraperitoneal, alternate days for 28 days
[7] = 5 mg/kg/day oral, daily for 28 days
[8] = 5 mg/kg/day intraperitoneal, daily for 28 days

Q: What does the source list for COC(=O)[C@]1(C)CC[C@]2(C)CC[C@]3(C)C4=CC=C5C(=CC(=O)C(O)=C5C)[C@]4(C)CC[C@@]3(C)[C@@H]2C1 [pristimerin, methyl (2R,4aS,6aS,12bR,14aS,14bR)-10-hydroxy-2,4a,6a,9,12b,14a-hexamethyl-11-oxo-1,2,3,4,4a,5,6,6a,11,12b,13,14,14a,14b-tetradecahydropicene-2-carboxylate]?
A: right ventricular hypertrophy (RV/(LV+Septum)) vs control group [1, 6]: significantly reduced; right ventricular systolic pressure vs control group [1, 6]: significantly reduced

Q: What does the source list for C[n+]1cc2c3c(ccc2c2ccc4cc5c(cc4c21)OCO5)OCO3 [sanguinarine]?
A: influence on body weight vs vehicle control [2]: no significant differences; also recorded: no influence; influence on food consumption vs vehicle control [2]: no significant differences; also recorded: no influence; right ventricular hypertrophy (RV/(LV+Septum)) vs control group [1, 7]: significantly reduced; right ventricular systolic pressure vs control group [1, 7]: significantly reduced; SeP expression in the lungs [3]: significantly reduced; selenoprotein P protein expression in the lungs vs control [4]: significantly suppressed; RVH [RV/(LV+S)] vs vehicle controls [5]: reduced; RVSP vs vehicle controls [5]: reduced

Q: With CC(=O)OC1C(c2ccc(=O)oc2)C2(C)CCC3C(CCC4(O)CC(O)CCC34C)C23OC13 [cinobufotalin, [(1R,2R,2aR,3aS,5aS,7S,9aR,11aR)-5a,7-dihydroxy-9a,11a-dimethyl-1-(2-oxo-2H-pyran-5-yl)hexadecahydronaphtho[1′,2′:6,7]indeno[1,7a-b]oxiren-2-yl acetate]] as the compound, how does the “right ventricular hypertrophy (RV/(LV+Septum)) vs control group” value [1, 8] read?
A: significantly reduced

Q: And the “right ventricular systolic pressure vs control group” value [1, 8]?
A: significantly reduced
